Experimental findings from patent publication US20240239775A1, “FXR REGULATOR, PREPARATION METHOD THEREFOR, PHARMACEUTICAL COMPOSITION THEREOF AND USE THEREOF” (QINGDAO RUIJI MEDICAL TECHNOLOGY CO., LTD., priority 2021, published 2024) are described below.

As a reminder, the IC50 is the concentration that inhibits the measured activity by half. Lower therefore signals greater potency.

The experiment has as its target T1, FXR (Homo sapiens, UniProt Q96RI1).
T1 construct: 5 μL of 20 nM FXR-LBD Complete Coregulator buffer G; purchased ThermoFisher PV4833
T1 sequence (Q96RI1 262-486 limits assumed): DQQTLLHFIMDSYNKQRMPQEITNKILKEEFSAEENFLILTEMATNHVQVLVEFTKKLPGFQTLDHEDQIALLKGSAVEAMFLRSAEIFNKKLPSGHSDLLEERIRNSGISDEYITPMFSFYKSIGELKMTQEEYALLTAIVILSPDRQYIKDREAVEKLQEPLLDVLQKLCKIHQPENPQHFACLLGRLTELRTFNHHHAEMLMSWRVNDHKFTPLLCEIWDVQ
The experiment in a line: FXR antagonist screening by TR-FRET (LanthaScreen TR-FRET FXR co-activation assay kit). The class given is biochemical. As to conditions: Table 1.2, FXR antagonistic activity; TR-FRET with CDCA; geometric means of at least two independent runs. Summed up: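 FXR-LBD (20 nM working solution) mixed with compound, CDCA (200 μM working solution) as agonist, Fluorescein-SRC2-2 and Tb-anti-GST antibody in Coregulator buffer G; 10 h at room temperature. Coactivator recruitment read by TR-FRET, triplicate wells.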
A general note: TR-FRET usually uses a lanthanide donor and a delayed reading to cut background.
Regarding `CCOC(=O)c1oc2ccc(S(=O)(=O)N(CCc3ccccc3)c3ccccc3N3CCN(C(=O)c4sccc4C)CC3)cc2c1C` [Example M10-141, Ethyl 5-(N-(2-(4-(3-methylthiophene-2-formyl)piperazin-1-yl)phenyl)-N-phenethylsulfamoyl)3-methylbenzofuran-2-carboxylate], the IC50 fell in the range of 50 to 100 µM.

Molecule `CCOC(=O)c1oc2ccc(S(=O)(=O)N(CCc3ccccc3)c3ccccc3N3CCN(C(=O)c4ncc[nH]4)CC3)cc2c1C` [Example M10-142, Ethyl 5-(N-(2-(4-(1H-imidazole-2-formyl)piperazin-1-yl)phenyl)-N-phenethylsulfamoyl)3-methylbenzofuran-2-carboxylate] came in with an IC50 of 50 to 100 µM.

Consider `CCOC(=O)c1oc2ccc(S(=O)(=O)N(CCc3ccccc3)c3ccccc3N3CCN(C(=O)C4CCCS4)CC3)cc2c1C` (centres unmarked) [Example M10-143, Ethyl 5-(N-(2-(4-(tetrahydrothiophene-2-formyl)piperazin-1-yl)phenyl)-N-phenethylsulfamoyl)3-methylbenzofuran-2-carboxylate], for which the IC50 fell in the range of 50 to 100 µM.

The molecule `CCOC(=O)c1oc2ccc(S(=O)(=O)N(CCc3ccccc3)c3ccccc3N3CCN(C(=O)c4c[nH]cn4)CC3)cc2c1C` [Example M10-144, Ethyl 5-(N-(2-(4-(1H-imidazole-4-carbonyl)piperazin-1-yl)phenyl)-N-phenethylsulfamoyl)3-methylbenzofuran-2-carboxylate] displayed an IC50 of 50 to 100 µM.

Regarding `CCOC(=O)c1oc2ccc(S(=O)(=O)N(CCc3ccccc3)c3ccccc3N3CCN(C(=O)C(CC)CC)CC3)cc2c1C` [Example M10-145, Ethyl 5-(N-(2-(4-(2-ethylbutyryl)piperazin-1-yl)phenyl)-N-phenethylsulfamoyl)3-methylbenzofuran-2-carboxylate], the IC50 is 50 to 100 µM.

On to `CCOC(=O)c1oc2ccc(S(=O)(=O)N(CCc3ccccc3)c3ccccc3N3CCN(C(=O)c4ccno4)CC3)cc2c1C` [Example M10-146, Ethyl 5-(N-(2-(4-(isoxazole-5-carbonyl)piperazin-1-yl)phenyl)-N-phenethylsulfamoyl)3-methylbenzofuran-2-carboxylate], for which the IC50 lay within 50 to 100 µM.

The molecule `CCOC(=O)c1oc2ccc(S(=O)(=O)N(CCc3ccccc3)c3ccccc3N3CCC(NC(=O)c4sccc4Br)CC3)cc2c1C` [Example M10-147, ethyl 5-(N-(2-(4-(3-bromothiophene-2-carboxamido)piperidin-1-yl)phenyl)-N-phenethylsulfamoyl)-3-methylbenzofuran-2-carboxylate] came in with an IC50 of 50 to 100 µM.

Molecule `CCOC(=O)c1oc2ccc(S(=O)(=O)N(CCc3ccccc3)c3ccccc3N3CCC4(CCN(C(=O)c5sccc5Br)C4)CC3)cc2c1C` [Example M10-148] had an IC50 of 50 to 100 µM.

The molecule `CCOC(=O)c1oc2ccc(S(=O)(=O)N(CCc3ccccc3)c3ccccc3N3CC4(CCN(C(=O)c5sccc5Br)CC4)C3)cc2c1C` [Example M10-149, Ethyl 5-(N-(2-(7-(3-bromothiophene-2-carbonyl)-2,7-diazaspiro[3.5]nonan-2-yl)phenyl)-N-phenethylsulfamoyl)-3-methylbenzofuran-2-carboxylate] registered an IC50 of 50 to 100 µM.

In turn, `CCOC(=O)c1oc2ccc(S(=O)(=O)N(CCc3ccccc3)c3ccccc3N3CCC4(CC3)CN(C(=O)c3sccc3Br)C4)cc2c1C` [Example M10-150] returned an IC50 of 50 to 100 µM.

For the molecule `CCOC(=O)c1oc2ccc(S(=O)(=O)N(CCc3ccccc3)c3ccccc3N3CC4CC(C3)N4C(=O)c3sccc3Br)cc2c1C` [Example M10-151, Ethyl 5-(N-(2-(6-(3-bromothiophene-2-carbonyl)-3,6-diazabicyclo[3.1.1]heptan-3-yl)phenyl)-N-phenethylsulfamoyl)-3-methylbenzofuran-2-carboxylate], the IC50 was 50 to 100 µM.

`CCOC(=O)c1oc2ccc(S(=O)(=O)N(CCc3ccccc3)c3ccccc3N3CCN(C(=O)c4sccc4Br)C[C@@H]3C)cc2c1C` [Example M10-152, (S)-ethyl-5-(N-(2-(4-(3-bromothiophene-2-carbonyl)-2-methylpiperazin-1-yl)phenyl)-N-phenethylsulfamoyl)-3-methylbenzofuran-2-carboxylate]: the IC50 lay within 50 to 100 µM.

On to `CCOC(=O)c1oc2ccc(S(=O)(=O)N(CCc3ccccc3)c3ccccc3N3CCN(C(=O)c4sccc4Br)C[C@H]3C)cc2c1C` [Example M10-153, (R)-ethyl-5-(N-(2-(4-(3-bromothiophene-2-carbonyl)-2-methylpiperazin-1-yl)phenyl)-N-phenethylsulfamoyl)-3-methylbenzofuran-2-carboxylate], for which the IC50 lay within 50 to 100 µM.

The molecule `CCOC(=O)c1oc2ccc(S(=O)(=O)N(CCc3ccccc3)c3ccccc3N3CCCN(C(=O)c4sccc4Br)CC3)cc2c1C` [Example M10-154, Ethyl 5-(N-(2-(4-(3-bromothiophene-2-formyl)-1,4-diazepin-1-yl)phenyl)-N-phenethylsulfamoyl)-3-methylbenzofuran-2-carboxylate] had an IC50 of 50 to 100 µM.

`CCOC(=O)c1oc2ccc(S(=O)(=O)N(CCc3ccccc3)c3ccccc3N3C4CCC3CN(C(=O)c3sccc3Br)C4)cc2c1C` [Example M10-155, Ethyl 5-(N-(2-(3-(3-bromothiophene-2-formyl)-3,8-diazepine[3.2.1]cyclooctan-8-yl)phenyl)-N-phenethylsulfamoyl)3-methylbenzofuran-2-carboxylate] displayed an IC50 of 50 to 100 µM.

As for `CCOC(=O)c1oc2ccc(S(=O)(=O)N(CCc3ccccc3)c3ccccc3N3CCN(C(=O)c4sccc4Br)C(C)C3)cc2c1C` (centres unmarked) [Example M10-156, Ethyl 5-(N-(2-(4-(3-bromothiophene-2-formyl)-3-methylpiperazin-1-yl)phenyl)-N-phenethylsulfamoyl)3-methylbenzofuran-2-carboxylate], the IC50 was in the range of 50 to 100 µM.

In turn, `CCOC(=O)c1oc2ccc(S(=O)(=O)N(CCc3ccccc3)c3ccccc3N3CC4CC3CN4C(=O)c3sccc3Br)cc2c1C` (centres unmarked) [Example M10-157, Ethyl 5-(N-(2-(5-(3-bromothiophene-2-formyl)-2,5-diazabicyclo[2.2.1]hept-2-yl)phenyl)-N-phenethylsulfamoyl)3-methylbenzofuran-2-carboxylate] registered an IC50 of 50 to 100 µM.

Take `CCOC(=O)c1sc2ccc(S(=O)(=O)N(CCc3ccccc3)c3ccccc3N3CCN(C(=O)c4sccc4Br)CC3)cc2c1C` [Example M10-158, ethyl 5-(N-(2-(4-(3-bromothiophene-2-carbonyl)piperazin-1-yl)phenyl)-N-phenethylsulfamoyl)-3-toluothiophene-2-carboxylate]: the IC50 fell in the range of 50 to 100 µM.

Regarding `CCOC(=O)c1cc2cc(S(=O)(=O)N(CCc3ccccc3)c3ccccc3N3CCN(C(=O)c4sccc4Br)CC3)ccc2s1` [Example M10-159, Ethyl 5-(N-(2-(4-(3-bromothiophene-2-carbonyl)piperazin-1-yl)phenyl)-N-phenethylsulfamoyl)benzo[b]thiophene-2-carboxylate], the IC50 was 50 to 100 µM.

In turn, `CCOC(=O)c1cc2ccc(S(=O)(=O)N(CCc3ccccc3)c3ccccc3N3CCN(C(=O)c4sccc4Br)CC3)cc2s1` [Example M10-160, Ethyl 6-(N-(2-(4-(3-bromothiophene-2-carbonyl)piperazin-1-yl)phenyl)-N-phenethylsulfamoyl)benzo[b]thiophene-2-carboxylate] registered an IC50 of 50 to 100 µM.
